We go through six compounds from US5140047A, “Lipoxygenase inhibitors” (SmithKline Beecham Corporation, priority 1991, dated 1992).

Each structure is given as a SMILES string. Like-named read-outs stand apart in the source and are kept apart here.

For one assay, the system named is myocardial infarction. Conditions: dogs, Mullane et al. 1984; cited from earlier work.
In assay [1] the test system is human monocyte LTB4 production. Kind of assay: LTB4 production from human monocytes in vitro (A23187 stimulated, RIA). It counts as cell-based. The procedure:
(§1) Human monocytes were prepared from leukosource packs supplied by the American Red Cross. The leukosource packs were fractionated by a two-step procedure described by F. Colatta et al. (J. Immunology 132: 936, 1984) that uses sedimentation on Ficoll followed by sedimentation on Percoll. The monocyte fraction that results from this technique was composed of 80-90% monocytes with the remainder being neutrophils and lymphocytes. In addition, significant number of platelets are present.
(§2) The monocytes (10^6 cells) were placed into polypropylene tubes and used as a suspended culture. The assay buffer consisted of RPMI 1640 buffer, 2 mM glutamine, 2.5 mM HEPES and 2 mM CaCl2 (total volume 0.475 ml). Compounds (0.005 ml) were added in DMSO, and the cells were preincubated for 10 minutes at 37° C. with constant agitation. A23187 (2 uM) was used to stimulate the cells. After an additional 10 minutes, the buffer was collected by centrifugation (2500×g for 15 minutes), and stored at -70° C. until assayed. LTB4 production was measured by radioimmunassay which was performed according to the manufacturer's (Advanced Magnetics, Boston, Mass.) instructions. PGE2 was determined using an RIA kit supplied by New England Nuclear (Boston, Mass.).

In assay [2] the test system is 5-LO activity (LTB4) in mouse whole blood. Kind of assay: Ex vivo mouse blood eicosanoid assay (LTB4, A23187 stimulated). In kind it is in vivo, mouse (CD1). The conditions noted are these: po, per os; for inhibition at 10 mg/kg: read-out: ex vivo, % inh., heading: ex vivo, % inh., 30 min pre-treatment, mouse whole blood, A23187 60 uM. Here is the method: In experiments when mice were used they were CD1 mice obtained from Charles River Breeding Laboratories, and within a single experiment the mice were age-matched. Their weight range was from 25 to 42 g. The test groups generally contained 3-6 animals.
Mice were pre-treated per os with vehicle or a test compound (dissolved in dimethylacetamide and diluted 1 to 10 with sesame oil) 30 minutes prior to removal of blood. The 5-lipoxygenase product LTB4, was extracted from whole blood following A23187 stimulation. Aliquots of pooled heparinized mouse blood (1 ml each aliquot) from male CD1 mice (Charles River) were placed into 4 ml polypropylene tubes. The tubes were preincubated for about five minutes at 37° C. A23187 (60 uM) was added to stimulate eicosanoid production. Several aliquots of blood were not stimulated and, thus, provided background levels for eicosanoid production. All tubes were incubated for about 30 minutes at 37° C. The blood samples were centrifuged at 400×g for about 15 minutes, and the plasma recovered for extraction. One volume of chilled acetonitrile was added to all at 5° C. The supernatants were recovered and diluted with 1% formic acid: 1% triethylamine to achieve a final concentration of 20% acetonitrile. These supernatants were then loaded onto the extraction cartridge that had been conditioned according to the Manufacturer's instructions (Solid Phase Extraction Columns, J. T. Baker, C18 3 ml size). The samples were washed with 3 ml of 1% formic acid: 1% triethylamine, air dried, and then washed with 3 ml of petroleum ether. After air drying again, the samples were eluted with methyl formate. The eluents were concentrated under vacuum. The concentrates were resuspended in 30% acetonitrile buffered with 50 mM ammonium acetate ([…]). The recovery of LTB4 was 60%. The 300 ul concentrates were assayed by radioreceptor assay for LTB4 by labortatory protocol.
Mean values for groups were calculated and percent inhibition was determined between the vehicle control mean and test group. […]

Assay [3] deals with eicosanoid production in human whole blood. Kind of assay: Inhibition of eicosanoid production following calcium ionophore stimulation in human whole blood. In kind it is cell-based. Conditions: calcium ionophore 60 μM. The procedure: The eicosanoids, which include the 5-lipoxygenase product LTB4, transLTB4, 20-hydroxyLTB4, 5-HETE, and the 12-lipoxygenase product are extracted from the whole blood following A23187 calcium ionophore stimulation. The extracts are separated by reverse phase high pressure liquid chromatography and quantified by absorbance methods.
Venous human blood is collected into polypropylene tubes containing 1% heparin. The blood is then aliquoted into 4.5 ml volumes and preincubated at 37° C. for 6 minutes in polypropylene tubes (15 ml size). Compound or carrier (10 μL dimethylsulfoxide) is added 6 minutes prior to stimulation. Calcium ionophore (0.5 ml) is added, and the blood incubated for 6 minutes. Prostaglandin B2 (1 nmole) is added, and the blood extracted as described below.
The samples are centrifuged at 1000×g for 15 minutes at 5° C. The plasma is collected, and one volume of acetonitrile is added to the plasma. This suspension is then centrifuged at 1000×g for 15 minutes at 5° C. The supernatant is collected and diluted with 1.5 volumes of chilled aqueous 1% formic acid. This mixture is loaded onto a preconditioned J. T. Baker C18 SPE cartridge (Phillipsburg, N.J.) at a flow rate of 1-2 ml/minute. (The cartridge is preconditioned according to manufacture's recommendations.) The absorbed sample is washed in the following order with three (3) ml each of (i) aqueous 1% formic acid: 1% triethylamine; and (ii) petroleum ether.
The eicosanoids are eluted in 3 ml of methyl formate. The solvent is removed under vacuum. The sample is resuspended in […] of 50% acetonitrile buffered with ammonium acetate. […]
The eicosanoids in the samples are verified by their retention times and their UV absorbance spectra. The peaks are quantified with reference to the internal standard and their absorbance response at their maximum absorbance wavelength.

In assay [4] the target is T1, 5-lipoxygenase (5-LO) isolated from extracts of RBL-1 cells (Rattus norvegicus, UniProt P12527).
T1 construct: isolated from extracts of RBL-1 cells; endogenous in cells; host or cells: RBL-1 cells (cell extract / supernatant)
T1 sequence (P12527 1-673): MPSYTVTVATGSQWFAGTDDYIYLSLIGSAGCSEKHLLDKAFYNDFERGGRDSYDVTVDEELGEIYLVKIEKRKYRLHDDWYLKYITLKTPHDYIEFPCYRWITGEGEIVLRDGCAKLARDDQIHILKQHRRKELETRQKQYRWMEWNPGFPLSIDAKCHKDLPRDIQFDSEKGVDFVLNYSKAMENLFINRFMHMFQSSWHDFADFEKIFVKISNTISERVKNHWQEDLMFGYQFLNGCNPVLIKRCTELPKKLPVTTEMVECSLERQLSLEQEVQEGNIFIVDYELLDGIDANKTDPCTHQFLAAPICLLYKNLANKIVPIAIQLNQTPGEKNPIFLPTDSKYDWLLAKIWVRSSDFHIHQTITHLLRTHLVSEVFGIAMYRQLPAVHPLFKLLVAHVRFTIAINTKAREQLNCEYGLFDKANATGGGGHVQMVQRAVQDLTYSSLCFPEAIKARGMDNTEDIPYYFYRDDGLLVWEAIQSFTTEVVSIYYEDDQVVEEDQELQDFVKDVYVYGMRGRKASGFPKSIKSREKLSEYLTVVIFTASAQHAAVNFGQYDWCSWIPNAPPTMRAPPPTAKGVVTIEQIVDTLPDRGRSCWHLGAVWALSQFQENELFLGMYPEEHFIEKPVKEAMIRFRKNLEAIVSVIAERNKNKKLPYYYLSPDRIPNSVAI
Kind of assay: 5-LO activity, RBL-1 supernatant, oxygen consumption. In kind it is biochemical. The conditions noted are these: RBL-1 supernatant 5-LO enzyme; 10 uM arachidonic acid, 20° C.; read-out: 5-LO IC-50. The procedure:
The 5-lipoxygenase (5-LO) was isolated from extracts of RBL-1 cells. The assay for assessing inhibition of the 5-LO activity was a continuous assay which monitored the consumption of oxygen (O2). The cell extract (100 ug) was preincubated with the inhibitor or its vehicle in 25 mM BisTris buffer (pH 7.0) that contained 1 mM EDTA, 1 mM ATP, 150 mM NaCl and 5% ethylene glycol for 2 minutes at 20° C. (total volume 2.99 ml). Arachidonic acid (10 uM) and CaCl2 (2 mM) were added to start the reaction, and the decrease in O2 concentration followed with time using a Clark-type electrode and the Yellow Spring O2 monitor (type 53) (Yellow Springs, Ohio). The optimum velocity was calculated from the progress curves. All compounds were dissolved in ethanol with the final concentration of ethanol being 1% in the assay. Drug-induced effects on enzyme activities are described as the concentration of drug causing a 50% inhibition of oxygen consumption (IC50).

Assay [5] concerns human monocyte PGE2 production (cyclooxygenase activity). Put plainly: PGE2 production from human monocytes in vitro (A23187 stimulated, RIA). The conditions noted are these: for IC50: Homo sapiens, Monocyte. In kind it is cell-based. The procedure:
as §1, §2

Another assay concerns rheumatoid arthritis. The conditions noted are these: preliminary observation, Neumann et al. 1983; cited from earlier work.
In assay [6] the test system is LTB4 and 5-HETE production. Conditions: Stenson et al. 1982; cited from earlier work.
The next assay has as its system psoriasis. Conditions: Allen et al. 1983; cited from earlier work.
The subject of the next assay is lipoxygenase. The conditions noted are these: cited from earlier work.

Consider `NC1=NN(c2cccc(C(F)(F)F)c2)CC1` [BW755-C], for which the “area of infarction following coronary occlusion” value in the assay with myocardial infarction is “reduced”.

A word on the ED50: it is the dose at which the effect has come halfway, by size or by number of responders. As to `NC(=O)N(O)C1CCCc2c1ccc1ccccc21` (stereo not shown) [Example 1, N-1-(1,2,3,4-Tetrahydrophenanthrenyl)-N-hydroxyurea], the IC50 in assay [1] (A23187 2 uM, Table 1, read-out: human monocyte-IC50, LTB4) is 1.6 µM; in [1] (read-out: IC50, production of LTB4 in the human monocyte), 1.6 µM; in assay [3] it was greater than 10 µM; in assay [4], 4.2 µM; in [5] (A23187 2 uM, Table 1, read-out: human monocyte-IC50, PGE2), greater than 30 µM; in assay [5] (read-out: IC50, production of the prostaglandin PGE2 (human monocyte)), greater than 30 µM. In assay [2] (0.5 h, mouse whole blood ex vivo, A23187, linear regression, read-out: ED50 (inhibition of 5-LO activity ex vivo)), the ED50 was 2.5 mg/kg. Besides, the inhibition at 10 mg/kg in assay [2] was determined as 86%. Also, in assay [5] (result in words), the “cyclooxygenase activity as indicated by production of PGE2” value is “did not inhibit cyclooxygenase activity”.

In the case of `NC(=O)N(O)C1COc2c1ccc1ccccc21` (stereo not shown) [Example 2], the inhibition at 10 mg/kg in [2] came out at 92%. Moreover, the IC50 in [3] is greater than 10 µM; in assay [4] it was 5.6 µM.

In the case of `NC(=O)N(O)C1COc2ccc3ccccc3c21` (stereo not shown) [Example 3], the IC50 in assay [3] was greater than 10 µM; in assay [4], 8 µM.

`O=C(O)c1cc(/N=N/c2ccc(S(=O)(=O)Nc3ccccn3)cc2)ccc1O` [Sulfasalazine]: in the assay on rheumatoid arthritis, the “efficacy in rheumatoid arthritic patients” value is “efficacy, including remission”. In addition, in [6], the “inhibition of LTB4 and 5-HETE production in vitro” value was “inhibit LTB4 and 5-HETE production in vitro”.

For `CC(C(=O)O)c1ccc2oc(-c3ccc(Cl)cc3)nc2c1` (stereo not shown) [benoxaprofen], the effect on psoriasis entry with psoriasis is on record as “promising effect”. The “in vitro lipoxygenase inhibitory activity” value with lipoxygenase is “in vitro lipoxygenase inhibitory activity”.
